This is an account of results in patent US20260327260A1, “PHOSPHONOALANINE OLIGOPEPTIDES AND METHODS OF MAKING AND USE THEREOF” (priority 2023, published 2026).

Holding throughout (assay type): biochemical, Streptomyces sp. NRRL S-515
The subject of one test is PnaC. The experiment in a line: PnaC dipeptide ligation reactions (LC-HRMS). As to conditions: for nucleophiles accepted upon activation of the carboxylate: role: substrate (activated carboxylate); for acceptance as carboxylate: role: substrate (carboxylate), 30° C, 16 hours. As to the method:
(§1) These hypotheses were tested by overproducing and purifying recombinant PnaB and PnaC from E. coli for use in a series of biochemical assays. PnAla, Ala, and ATP were incubated with PnaB or PnaC and the reactions were monitored by ^31P NMR and LC-HRMS. […] To determine if either enzyme could convert Ala-Val into phosphonoalamide A, protein was removed from the PnaC reaction by ultrafiltration and Ala, ATP, and fresh PnaC or PnaB was added to the filtrate. LC-HRMS identified PnAla-Ala-Val as a product following the addition of PnaB, but not PnaC (FIG. 25A-FIG. 25C).
The ATP-Grasp ligases PnaC and PnaB underlie diversification of L-PnAla-containing oligopeptides. To understand the biochemical nature of this potential phosphonopeptide diversity, the substrate specificity of the dipeptide ligase PnaC was first delineated. Microscale biochemical reactions containing purified PnaC were performed with every combination of the 20 canonical amino acids and L-allo-threonine (231 total pairs of substrates). Reactions were analyzed by LC-HRMS to reveal putative dipeptides from 146 out of the 231 combinations. To distinguish residues in reactions containing isomeric pairs (e.g., Ile and Leu, Thr and allo-Thr) new reactions were prepared using ^15N-Ile and 4-^13C-2,3-D2-Thr as substrates. LC-HRMS/MS fragmentation analysis was then performed to verify all products and determine structures.
Biochemical assays of His6-PnaC. Typical reaction mixtures ([…]) contained 10 μM His6-PnaC, […], 3 mM of each L-amino acid, and 5 mM ATP in 50 mM Tris-HCl, 100 mM NaCl, 2 mM MgCl2 pH 9. Reactions were incubated at 30° C. for 16 hours, heat inactivated at 65° C. for 10 minutes, and then analyzed by LC-MS as described above.
(§2) Analysis of PnaC and PnaB substrate specificity reactions. An extracted ion chromatogram (EIC) was obtained for each potential product m z. The shape and retention time of each EIC were used to evaluate the quality and plausibility of true signals, and samples with low-confidence EICs were re-analyzed individually, to address the challenges of ion suppression (FIG. 31A-FIG. 31C) and background noise (FIG. 32A-FIG. 32D).

A further test relates to PnaB and PnaC. The experiment in a line: One-pot tripeptide synthesis using PnaB and PnaC. To be noted: for abundance of PnAla conjugate: role: substrate (dipeptide), with PnAla 1 mM and ATP 5 mM, one-pot with PnaC.
Excerpt: Having established the diversity of dipeptides produced by PnaC, the reaction specificity of PnaB was probed. PnaC was used to generate substrates for the ligation of PnAla by PnaB. Microscale reactions contained PnaB, PnaC, PnAla, and all pairs of amino acids shown to form dipeptides. LC-HRMS and fragmentation analysis was then used to identify and verify PnAla-containing tripeptides from these 80 reactions (FIG. 4B, Table 4, Table 5). Altogether, the combined enzyme system produced 97 distinct PnAla-tripeptides, 93 of which had not been previously isolated (FIG. 29 & FIG. 30).
Tripeptide synthesis assays using PnaB and PnaC. Reaction mixtures ([…]) contained 10 μM His6-PnaB, 10 μM His6-PnaC, 1 mM L-PnAla, 3 mM L-amino acid A, 3 mM L-amino acid B, and 5 mM ATP in 50 mM Tris-HCl, 100 mM NaCl, 2 mM MgCl2 pH 9. Reactions were incubated at 30° C. for 16 hours, heat inactivated at 65° C. for 10 minutes, and then analyzed by NMR and LC-MS as described above.
as §2

A further test has as its system PnaB. The experiment in a line: PnaB ligation reactions (31P NMR, LC-HRMS). As to conditions: for conversion of dipeptide with PnAla into phosphonoalamide: role: substrate, dipeptide 3 mM, with PnAla 1 mM and ATP 3 mM, pH 9, 30° C. As to the method: as §1
Biochemical assays of His6-PnaB. Typical reaction mixtures ([…]) contained 10 μM His6-PnaB, 3 mM ATP, 1 mM L-PnAla, 3 mM chemically synthesized L-Ala-L-Val, L-Val-L-Val, L-Ala-L-Ile, or L-Thr-L-Val in 50 mM Tris-HCl, 100 mM NaCl, 2 mM MgCl2 pH 9. Reactions were incubated at 30° C. for 2 hours, heat inactivated at 65° C. for 10 minutes, and then analyzed by NMR and LC-MS as described above.

In a further test the test system is PnaA with PnaD. Briefly: PnaD-PnaA coupled forward reaction, 31P NMR (PEP to PnAla). As to the method: Biochemical assays of His6-SUMO-PnaA with His6-PnaD. Typical reaction mixtures (300 μL) contained 20 μM His6-PnaD, 20 μM His6-SUMO-PnaA, 1.5 mM PEP, 3 mM L-Asp, 100 μM pyridoxal 5′-phosphate (PLP), and 2 mM MgCl2 in 50 mM HEPES, 150 mM NaCl, pH 7.5. Reactions were incubated at 30° C. for 2 hours, heat inactivated at 65° C. for 10 minutes, and then analyzed by ^31P NMR and LC-MS as described above.
Reactions in timecourse experiments ([…]) contained 10 μM His6-PnaD, 10 μM His6-SUMO-PnaA, 1.5 mM PEP, 10 mM L-Asp, 100 μM pyridoxal 5′-phosphate (PLP), and 2 mM MgCl2 in 50 mM HEPES, 150 mM NaCl, pH 7.5. Samples were where heat inactivated 1, 5, 10, 30, 60, 120, and 240 min after initiation and then analyzed by ^31P NMR as described above.
Reactions examining the effect of amino donor concentrations were the same as above, except they contained 1.5, 3, 5, or 10 mM of (L-Asp). Samples were heat inactivated after 120 min and then analyzed by ^31P NMR as described above.

The subject of a further test is PnaA. The experiment in a line: PnaA reverse transamination reaction, 31P NMR/LC-MS (PnAla to PnPy). To be noted: role: cofactor; additional PLP provided, with PnAla and OAA. As to the method:
Biochemical assays of His6-SUMO-PnaA. Typical reaction mixtures (300 μL) contained 20 μM His6-SUMO-PnaA, 1.5 mM L-PnAla, 3 mM oxaloacetate, and 100 μM pyridoxal 5′-phosphate (PLP) in 50 mM HEPES, 150 mM NaCl, pH 7.5. Reactions were incubated at 30° C. for 2 hours, heat inactivated at 65° C. for 10 minutes, and then analyzed by NMR and LC-MS as described above.
Reactions in time course experiments (150 μL) contained 10 μM His6-SUMO-PnaA, 1.5 mM L-PnAla, 10 mM oxaloacetate (OAA), and 100 μM pyridoxal 5′-phosphate (PLP) in 50 mM HEPES, 150 mM NaCl, pH7.5. Samples were where heat inactivated 1, 5, 10, 30, 60, 120, and 240 min after initiation and then analyzed by ^31P NMR as described above.
Reactions examining the effect of keto-acid acceptor concentrations were the same as above, except they contained 1.5, 3, 5, or 10 mM of (OAA). Samples were heat inactivated after 120 min and then analyzed by ^31P NMR as described above.

A further test concerns PnaD and PnaA. Briefly: Coupled PnaD-PnaA kinetics: PEP conversion to L-PnAla, coupled to MDH/NADH oxidation. To be noted: second substrate L-Asp 5 mM. An excerpt: Apparent steady state parameters were also derived for the conversion of PEP to L-PnAla in reactions with equimolar amounts of PnaD and PnaA (FIG. 20A-FIG. 20B). […] The lower activity in the two-enzyme system is consistent with the slower rate of L-PnAla accumulation observed in the time course experiments (FIG. 16), reflects the unfavourability of PnPy formation [B30], and supports the general hypothesis that PepM activity is the limiting step in Pn biosynthetic pathways.
Kinetic analyses. All reactions (400 μL) were performed in 50 mM HEPES, 150 mM NaCl, pH 7.5, 30° C. using an Agilent Cary 300 spectrophotometer. The instrument was first blanked using the reaction containing the enzymes and the fixed substrate (without NADH). Initial rates were calculated from continual changes in absorbance (340 nm) before and after substrate addition. Data were analyzed using SigmaPlot 15.
Conversion of PEP and L-Asp to L-PnAla and OAA by His6-SUMO-PnaA and His6-PnaD. Each reaction contained 1 μM PnaA, 5 μM PnaD, 5 μM MDH, 200 uM NADH, 2 mM MgCl2, 5 mM L-Asp, and were initiated by the addition of 0.1, 0.2, 0.35, 0.5, 0.65, 0.8, or 1 mM PEP. PnaA was pre-incubated with PLP (1:5) on ice for 10 min prior to use.

Setting [1] is: role: substrate (PEP, 0.1-1 mM), MgCl2 2 mM, PnaD and PnaA coupled, pH 7.5, 30° C.

Residues, ends and D or L forms follow the SMILES beside them.

With `CC(C)[C@H](NC(=O)[C@H](C)N)C(=O)O` [Ala-Val] (H-Ala-Val-OH), the “dipeptide product of PnaC reaction (Ala + Val, ATP)” value with PnaC (role: product, with Ala, Val, ATP) is “product of the PnaC reaction”. Besides, the “abundance of PnAla conjugate” value with PnaB and PnaC is reported as “greatest abundance”. For the molecule `CC(C)[C@H](N)C(=O)N[C@H](C(=O)O)C(C)C` [Val-Val] (H-Val-Val-OH), in the test on PnaB, the “conversion of dipeptide with PnAla into phosphonoalamide” value (shortened to “conversion of dipeptide”) was “respective conversion into phosphonoalamides B, C, and D”. For the molecule `CSCC[C@H](NC(=O)[C@H](C)N)C(=O)O` [Ala-Met] (H-Ala-Met-OH), the “abundance of PnAla conjugate” value in the test with PnaB and PnaC is recorded as “greatest abundance”.

On to `C[C@H](N)C(=O)O` [Ala, Alanine], for which the “substrate preference (average ion intensity of dipeptides)” value in the test with PnaC (role: substrate, with ATP, LC-HRMS ion intensity) was “average ion intensity nearly a magnitude larger than any other group”. As for `C[C@@H](O)[C@H](N)C(=O)O` [Thr, Threonine], the “nucleophiles accepted upon activation of the carboxylate” value with PnaC (with ATP) is “acceptance of Trp as a nucleophile, but not Thr or Pro”. Take `N[C@@H](CC(=O)O)C(=O)O` [L-Asp, reference compound]: the “amino donor dependence of PnAla formation” value in the test with PnaA with PnaD (role: substrate (amino donor), with PEP, PLP) was “strictly dependent on L-Asp as the amino donor”. As to `Nc1ncnc2c1ncn2[C@@H]1O[C@H](COP(=O)(O)OP(=O)(O)OP(=O)(O)O)[C@@H](O)[C@H]1O` [ATP, reference compound], the ATP requirement result with PnaB (role: cofactor, ATP omitted) is on record as “its omission abolished all activity”; with PnaC (role: cofactor, ATP omitted) it was “its omission abolished all activity”.

In the case of `CC(C)C[C@H](NC(=O)[C@H](C)N)C(=O)O` [Ala-Leu] (H-Ala-Leu-OH), the “abundance of PnAla conjugate” value with PnaB and PnaC is recorded as “greatest abundance”.

As to `C[C@H](N)C(=O)N[C@@H](C)C(=O)O` [Ala-Ala] (H-Ala-Ala-OH), the “abundance of PnAla conjugate” value in the test with PnaB and PnaC is “greatest abundance”. For `Cc1ncc(COP(=O)(O)O)c(C=O)c1O` [PLP, pyridoxal 5′-phosphate, reference compound], in the test on PnaA with PnaD (role: cofactor, without addition of PLP), the “effect of PLP on PnAla formation” value is listed as “enzyme activity was observed at significantly reduced amounts”. The “effect of PLP on PnPy formation” value with PnaA is on record as “significantly greater PnPy was observed when additional PLP was provided”. In the case of `CC(C)[C@H](NC(=O)[C@@H](N)[C@@H](C)O)C(=O)O` [Thr-Val] (H-Thr-Val-OH), the “conversion of dipeptide” value in the test with PnaB is “respective conversion into phosphonoalamides B, C, and D”. As for `N=C(N)NCCC[C@H](N)C(=O)O` [arginine, Arginine], in the test on PnaC (with ATP), the acceptance as carboxylate result was “all but arginine and cysteine were accepted as carboxylates”.

Regarding `CSCC[C@H](NC(=O)[C@H](Cc1c[nH]c2ccccc12)NC(=O)[C@@H](N)CP(=O)(O)O)C(=O)O` [PnAla-Trp-Met], the “product of Met + Trp reaction” value with PnaB and PnaC (role: product, two-enzyme system PnaBC, Met and Trp 3 mM each, ATP 5 mM) is on record as “major species”.

Regarding `CC[C@H](C)[C@H](NC(=O)[C@H](C)N)C(=O)O` [Ala-Ile] (H-Ala-Ile-OH), the “conversion of dipeptide” value with PnaB is “respective conversion into phosphonoalamides B, C, and D”. For the same molecule, in the test on PnaB and PnaC, the “abundance of PnAla conjugate” value is given as “greatest abundance”.

Take `CSCC[C@H](N)C(=O)N[C@@H](Cc1c[nH]c2ccccc12)C(=O)O` [Met-Trp] (H-Met-Trp-OH): the “product of Met + Trp reaction” value with PnaC (role: product, PnaC-only reaction, Met and Trp, ATP) is on record as “detected as the sole product”.

As to `C[C@H](O)[C@H](N)C(=O)O` [allo-Thr, allothreonine], the “nucleophiles accepted upon activation of the carboxylate” value with PnaC (with ATP) is “both Thr and Pro as nucleophiles, to the exclusion of Trp”. As for `N[C@@H](CS)C(=O)O` [cysteine, Cysteine], in the test on PnaC (with ATP), the acceptance as carboxylate result is “all but arginine and cysteine were accepted as carboxylates”. As to `C=C(OP(=O)(O)O)C(=O)O` [PEP, phosphoenolpyruvate], in the test on PnaD and PnaA (role: substrate (PEP), compared with PnPy), the “catalytic efficiency lower than that of PnaA directly provided with PnPy (fold)” value was 1,000 fold. In addition, in the test with PnaD and PnaA (setting [1]), the Km (as a rule, the concentration of substrate that gives half-maximal velocity) was determined as 547 µM; the kcat (in general, the number of substrate molecules converted per active site and unit of time at saturation) is 0.084 s⁻¹.
